Test results as given in US20050130909A1 (priority 2002, published 2005).

Experiments:
Rat mass balance study = type: in vivo, Sprague-Dawley rats
Procedure: Mass balance studies were conducted to determine the excretion pattern of dalbavancin following a single intravenous (IV) infusion of dalbavancin in male rats.
Water and methanol cage washes were also collected.

dipeptide (D-Ala-D-Ala) = experiment: ITC, preliminary experiments; type: binding; conditions: absence of serum proteins
Lys-D-Ala-D-Lactate = experiment: ITC, preliminary experiments; type: binding; conditions: absence of serum proteins
[1] = system: N,N′-diacetyl-Lys-D-Ala-D-Ala; experiment: ITC of binding to tri-peptide cell-wall analog, with and without HSA; conditions: control ITC experiments with HSA
Procedure: Peptide concentrations were determined by weight.
Trans. R. Soc. Lond. Ser. A-Math. Phys. Eng. […] Wiley, (1998) p 103-111; and Cooper, A., Curr. Opin. Chem. Biol. (1999) 3, 557-563.

human albumin = human albumin (Homo sapiens, UniProt P02768); experiment: Protein binding by isothermal titration microcalorimetry (ITC); conditions: for Calculated percent Binding to Human albumin: albumin 6×10^−4 M assumed
human α-glycoprotein = experiment: Protein binding by ITC; conditions: protein […]10^−5 M assumed
[2] = ESI-MS analysis of multimers in solution; conditions: dalbavancin 0.1 mg/ml in 8:2 water:isopropanol; teicoplanin 50 and 100 μg/mL in water
Procedure: Experiments were performed using an Applied Biosystem API III+ mass spectrometer equipped with a TurboIonSpray source, a Triple Quadrupole analyzer, operating in positive ion mode.
The mass spectra were obtained in electrospray positive mode on a Finnigan LCQ^Deca ion trap instrument previously tuned and calibrated in electrospray mode using Ultramark 1621, caffeine and MRFA (L-metionyl-arginyl-phenilalanyl-arginine).

Sequence of human albumin (P02768 25-609): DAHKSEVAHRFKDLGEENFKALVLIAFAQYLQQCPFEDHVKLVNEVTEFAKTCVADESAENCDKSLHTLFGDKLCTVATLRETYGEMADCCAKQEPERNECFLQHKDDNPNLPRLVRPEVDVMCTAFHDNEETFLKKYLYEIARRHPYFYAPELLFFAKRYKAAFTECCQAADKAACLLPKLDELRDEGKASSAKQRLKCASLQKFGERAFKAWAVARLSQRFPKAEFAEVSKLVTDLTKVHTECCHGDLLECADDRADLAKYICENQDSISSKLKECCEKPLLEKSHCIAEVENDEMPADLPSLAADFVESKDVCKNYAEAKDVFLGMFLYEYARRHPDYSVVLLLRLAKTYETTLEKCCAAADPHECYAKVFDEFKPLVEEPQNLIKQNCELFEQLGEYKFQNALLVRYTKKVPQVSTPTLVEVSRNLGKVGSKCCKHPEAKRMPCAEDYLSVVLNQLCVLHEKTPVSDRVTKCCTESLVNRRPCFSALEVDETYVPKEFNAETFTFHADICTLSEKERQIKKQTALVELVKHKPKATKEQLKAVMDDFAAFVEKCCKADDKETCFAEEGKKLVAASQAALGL

## CN[C@H]1C(=O)N[C@@H]2Cc3ccc(cc3)Oc3cc4cc(c3O[C@@H]3O[C@H](C(=O)O)[C@@H](O)[C@H](O)[C@H]3NC(=O)CCCCCCCCC(C)C)Oc3ccc(cc3Cl)[C@@H](O)[C@@H]3NC(=O)[C@H](NC(=O)[C@@H]4NC(=O)[C@@H](NC2=O)c2cc(cc(O)c2Cl)Oc2cc1ccc2O)c1ccc(O)c(c1)-c1c(O[C@H]2O[C@H](CO)[C@@H](O)[C@H](O)[C@@H]2O)cc(O)cc1[C@@H](C(=O)NCCCN(C)C)NC3=O [^3H-dalbavancin]
Rat mass balance study; 70 days post dose, mass balance study
  Dose remaining in the carcass: 4.5 % of the dose
Rat mass balance study; rats, single IV 20 mg/kg
  Plasma t1/2: approximately 1 week

## CN[C@H](CC(C)C)C(=O)N[C@H]1C(=O)N[C@@H](CC(N)=O)C(=O)N[C@H]2C(=O)N[C@H]3C(=O)N[C@H](C(=O)N[C@H](C(=O)O)c4cc(O)cc(O)c4-c4cc3ccc4O)[C@H](O)c3ccc(c(Cl)c3)Oc3cc2cc(c3O[C@@H]2O[C@H](CO)[C@@H](O)[C@H](O)[C@H]2O[C@H]2C[C@](C)(N)[C@H](O)[C@H](C)O2)Oc2ccc(cc2Cl)[C@H]1O [vancomycin, reference compound]
Dipeptide (D-Ala-D-Ala)
  Binding to dipeptide (D-Ala-D-Ala): no evidence of binding
Lys-D-Ala-D-Lactate
  Binding to Lys-D-Ala-D-Lactate: no evidence of binding
[1]
  Binding to tri-peptide in the presence of HSA (control): comparable to those seen in the absence of HSA

## Teicoplanin [reference compound]
Human albumin; antibiotic 1 μM
  Calculated percent Binding to Human albumin: 98.3%
Human albumin; antibiotic 10 μM
  Calculated percent Binding to Human albumin: 98.3%
Human albumin; antibiotic 100 μM
  Calculated percent Binding to Human albumin: 98.0%
Human albumin; binding stoichiometry modeling of ITC data
  Binding stoichiometry antibiotic:protein: 1:1 binding
Human α-glycoprotein; antibiotic 1 μM
  Calculated percent Binding to Human α-glycoprotein: 9.6%
Human α-glycoprotein; antibiotic 10 μM
  Calculated percent Binding to Human α-glycoprotein: 9.1%
Human α-glycoprotein; antibiotic 100 μM
  Calculated percent Binding to Human α-glycoprotein: 6.0%
[2]
  Multimers in solution: does not show multimeric complexes in solution
